Legend:
C2C12 muscle cells = experiment: Analysis of glucose absorption (2-deoxyglucose) in differentiated C2C12 muscle cells; type: cell-based; conditions: test materials 10 μM, times relative to control group
In short: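 Differentiated C2C12 myotubes (6 days in 1% serum) held 3 h in KRB with 5 mM glucose, then given test material at 10 μM. After 30 min, 0.2 μCi 2-deoxyglucose added for 20 min; uptake measured by radioactive counting of NaOH lysates.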

AMPK = experiment: Measurement of AMPK activity by Western blot in C2C12 cells; type: cell-based; design: key to AMPK activity (degree of phosphorylation of serine-79 and threonine-172): fold increase in threonine-172 phosphorylation; AMPK activity (degree of phosphorylation of serine-79): unit not given here; conditions: 10 μM for 50 minutes; for AMPK activity (class: degree of phosphorylation of threonine-172): strong/mild/weak; for AMPK activity (degree of phosphorylation of serine-79 and threonine-172): no superscript: Western blot of serine-79 and threonine-172 phosphorylation
In short: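 Differentiated C2C12 cells were exposed to test material at 10 μM for 50 minutes, then lysed. AMPK activity was taken from Western blots of Thr-172 phosphorylation and acetyl CoA carboxylase Ser-79 phosphorylation, with ERK as loading reference. Thr-172 rise was graded strong (≥3-fold), mild (1-3-fold) or weak (<1-fold).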

SMILES | Glucose absorption (C2C12 muscle cells) | AMPK activity (class: degree of phosphorylation of threonine-172) (AMPK) | AMPK activity (degree of phosphorylation of serine-79 and threonine-172) (AMPK) | AMPK activity (degree of phosphorylation of serine-79) (AMPK; footnote a: Western blot of serine-79 phosphorylation)
CCCNc1nc(-c2ccccc2)nc2ccccc12 [Compound 61, (2-Phenylquinazolino-4-yl)-propylamine] | 1.9 | weak (“weak” means that the degree of phosphorylation of threonine-172 increased by less than 1 time) |  | 
COc1ccc(CNc2nc(N3CCCCC3)nc3ccccc23)cc1OC [Compound 300, (3,4-Dimethoxybenzyl)-(2-piperidino-1-ylquinazolino-4-yl)-amine] | 0.9 |  | 1.0 | 
CN1CCN(c2nc(NCc3ccc4c(c3)OCO4)c3ccccc3n2)CC1 [Compound 310, Benzo[1,3]dioxol-5-ylmethyl-[2-(4-methylpiperazino-1-yl)-quinazolino-4-yl]-amine] | 0.9 |  | 1.6 | 
CCSc1nc(NCCc2cccc(C(F)(F)F)c2)c2ccccc2n1 [Compound 12, (2-Ethylsulfanylquinazolino-4-yl)-[2-(3-trifluoromethyl-phenyl)ethyl]-amine] | 0.8 |  |  | 4.0^a
COc1cccc(CNc2nc(-c3cccs3)nc3ccccc23)c1OC [Compound 353, (2,3-Dimethoxybenzyl)-(2-thiopenyl-2-ylquinazolino-4-yl)-amine] | 1.2 |  | 0.8 | 
COc1cccc(CNc2nc(N3CCCCC3)nc3ccccc23)c1OC [Compound 288, (2,3-Dimethoxybenzyl)-(2-piperidino-1-ylquinazolino-4-yl)-amine] | 0.8 |  | 1.7 | 
COc1ccccc1CNc1nc(Cc2ccccc2)nc2ccccc12 [Compound 328, (2-Benzylquinazolino-4-yl)-(2-methoxybenzyl)-amine] | 1.4 |  | 3.8 | 
Cc1nc(NCc2ccc3c(c2)OCO3)c2ccccc2n1 [Compound 170, Benzo[1,3]dioxol-5-ylmethyl-(2-methylquinazolino-4-yl)-amine] | 2.4 | strong (“strong” means that the degree of phosphorylation of threonine-172 increased by 3 times or more) | 8.8 | 
COc1ccc(CNc2nc(C(OC)c3ccccc3)nc3ccccc23)c(OC)c1 (stereo not shown) [Compound 368, (2,4-Dimethoxybenzyl)-[2-(methoxyphenylmethyl)-quinazolino-4-yl]-amine] | 1.1 |  | 5.9 | 
FC(F)(F)c1cccc(CNc2nc(-c3ccccn3)nc3ccccc23)c1 [Compound 226, (2-Pyridino-2-ylquinazolino-4-yl)-(3-trifluoromethylbenzyl)-amine] | 1.9 | strong (“strong” means that the degree of phosphorylation of threonine-172 increased by 3 times or more) | 4.3 | 
CC(C)c1nc(NCCc2ccccc2)c2ccccc2n1 [Compound 179, (2-Isopropylquinazolino-4-yl)-phenethylamine] | 2.9 | strong (“strong” means that the degree of phosphorylation of threonine-172 increased by 3 times or more) | 3.8 | 
CCCc1nc(NCc2ccc(OC)cc2)c2ccccc2n1 [Compound 395, (4-Methoxybenzyl)-(2-propylquinazolino-4-yl)-amine] | 1.2 |  | 7.0 | 
COc1ccccc1CNc1nc(C(C)C)nc2ccccc12 [Compound 321, (2-Isopropylquinazolino-4-yl)-(2-methoxybenzyl)-amine] | 1.2 |  | 0.9 | 
Fc1cccc(CCNc2nc(-c3ccccc3)nc3ccccc23)c1 [Compound 103, [2-(3-Fluorophenyl)-ethyl]-(2-phenylquinazolino-4-yl)-amine] | 2.2 | strong (“strong” means that the degree of phosphorylation of threonine-172 increased by 3 times or more) | 2.6 | 
COc1ccc(CNc2nc(N3CCCCC3)nc3ccccc23)c(OC)c1 [Compound 292, (2,4-Dimethoxybenzyl)-(2-piperidino-1-ylquinazolino-4-yl)-amine] | 0.7 |  | 1.2 | 
CC(C)c1nc(NCc2cccc(F)c2)c2ccccc2n1 [Compound 183, (3-Fluorobenzyl)-(2-isopropylquinazolino-4-yl)-amine] | 3.3 | strong (“strong” means that the degree of phosphorylation of threonine-172 increased by 3 times or more) | 2.6 | 
CCCCN(C)c1nc(-c2ccccc2)nc2ccccc12 [Compound 138, Butylmethyl-(2-phenylquinazolino-4-yl)-amine] | 2.4 | strong (“strong” means that the degree of phosphorylation of threonine-172 increased by 3 times or more) | 2.9 | 
COc1cc(CNc2nc(N3CCCC3)nc3ccccc23)cc(OC)c1 [Compound 303, (3,5-Dimethoxybenzyl)-(2-pyrrolidino-1-ylquinazolino-4-yl)-amine] | 1.0 |  | 1.0 | 
c1ccc(-c2nc(NC3CC3)c3ccccc3n2)cc1 [Compound 110, Cyclopropyl-(2-phenylquinazolino-4-yl)-amine] | 2.0 | strong (“strong” means that the degree of phosphorylation of threonine-172 increased by 3 times or more) | 1.6 | 
COc1cc(OC)c(CNc2nc(C(C)C)nc3ccccc23)c(OC)c1 [Compound 327, (2-Isopropylquinazolino-4-yl)-(2,4,6-trimethoxybenzyl)-amine] | 1.3 |  | 4.4 | 
COc1cccc(CNc2nc(C3CCCCC3)nc3ccccc23)c1 [Compound 200, (2-Cyclohexylquinazolino-4-yl)-(3-methoxybenzyl)-amine] | 2.7 | strong (“strong” means that the degree of phosphorylation of threonine-172 increased by 3 times or more) | 1.5 | 
c1ccc(-c2nc(NCc3cccc4ccccc34)c3ccccc3n2)nc1 [Compound 229, Naphthaleno-1-ylmethyl-(2-pyridino-2-ylquinazolino-4-yl)-amine] | 1.9 | strong (“strong” means that the degree of phosphorylation of threonine-172 increased by 3 times or more) | 4.7 | 
COC(c1ccccc1)c1nc(NCc2ccc3c(c2)OCO3)c2ccccc2n1 (stereo not shown) [Compound 363, Benzo[1,3]dioxol-5-ylmethyl-[2-(methoxyphenylmethyl)-quinazolino-4-yl]-amine] | 1.3 |  | 1.4 | 
Clc1ccc(CCNc2nc(-c3ccccc3)nc3ccccc23)cc1Cl [Compound 149, [2-(3,4-Dichlorophenyl)-ethyl]-(2-phenylquinazolino-4-yl)-amine] | 2.6 | strong (“strong” means that the degree of phosphorylation of threonine-172 increased by 3 times or more) | 2.5 | 
COc1ccc(CNc2nc(N3CCOCC3)nc3ccccc23)cc1OC [Compound 301, (3,4-Dimethoxybenzyl)-(2-morpholino-4-ylquinazolino-4-yl)-amine] | 0.8 |  | 0.9 | 
COc1ccc(CNc2ncnc3ccccc23)c(OC)c1 [Compound 412, (2,4-Dimethoxybenzyl)-quinazolino-4-ylamine] | 1.7 |  | 8.4 | 
COc1cc(CNc2nc(N3CCCCC3)nc3ccccc23)cc(OC)c1 [Compound 304, (3,5-Dimethoxybenzyl)-(2-piperidino-1-ylquinazolino-4-yl)-amine] | 0.8 |  | 1.4 | 

— patent publication US20080207614A1, “QUINAZOLINE DERIVATIVES FOR THE TREATMENT AND PREVENTION OF DIABETES AND OBESITY” (SK CHEMICALS CO., LTD., priority 2004, published 2008)
